From article PMC11091889, “Silver Organometallics that are Highly Potent Thioredoxin and Glutathione Reductase Inhibitors: Exploring the Correlations of Solution Chemistry with the Strong Antibacterial Effects” (ACS Infectious Diseases, 2024)

What was measured:
[1] = test system: S. aureus MRSA (DSM 11822, ICB 25701); assay: microbe, parasite or virus in culture; type: cell-based, methicillin resistant S. aureus; details: n = 3, TSY; for MIC MRSA / EC50: mean ± standard error; for MIC MRSA / MIC MRSA (value in brackets): 22 h; for EC50: read-out: EC50 MRSA
Description: (§1) The antibacterial effect of the silver NHC complexes and selected ligands was evaluated in two Gram-positive [Enterococcus faecium, methicillin resistant S. aureus, (MRSA)] and in four Gram-negative (Acinetobacter baumannii, Escherichia coli, Klebsiella pneumoniae, and Pseudomonas aeruginosa) pathogenic bacterial strains using broth microdilution assays. The resulting minimal inhibitory concentrations (MICs, Table 2) and EC50 (Table S6) were determined by a curve fitting procedure. Silver nitrate (AgNO3), SSD, and various antibiotics were used as references.
The importance of the culture medium used in antibacterial assays has been pointed out for antibiotics and in particular for silver.[53]−[55] In our recent studies, tryptic soy yeast (TSY) broth has been used for growing Gram-positive bacteria. Two components thereof, tryptone and yeast extract, have been reported to affect the antibacterial activity of silver nitrate.[55] Moreover, such an effect was also observed for other media containing at least one of those components.[11],[53] […] Silver nitrate served as a reference, and three different growth media were studied, namely, Müller-Hinton Broth (MHB, commonly used for Gram-negative bacteria), TSY broth (commonly used for Gram-positive bacteria), and DMEM supplemented with 10% FCS (commonly used for growth of mammalian and human cells).
(§2) The following strains of ESKAPE panel were utilized and maintained at 37 °C in MHB (21 g/L Müller Hinton broth, pH 7.4) or TSY (30 g/L trypticase soy broth, 3 g/L yeast extract, pH 7.0–7.2) media: A. baumannii (DSM 30007, ATCC 19606), E. coli (DSM1116, ATCC 9637), K. pneumoniae (DSM 11678, ATCC33495), P. aeruginosa PA7 (DSM 24068) in MHB; E. faecium (DSM 20477, ATCC 19434), and S. aureus MRSA (DSM 11822, ICB 25701) in TSY. MIC values were determined following a standardized protocol in broth microdilution assays. The compounds and reference substances (AgNO3 and SSD) were serially diluted from 64 to 1 μg/mL. Starting inocula of 2–8 × 10^5 CFU/mL in MHB or TSY media at 37 °C were used, and serial dilutions were carried out in 96-well microtiter plates in duplicate. After incubation of the plates for 22 h at 37 °C, the absorbance at 600 nm was measured using The Spark multimode microplate reader (Tecan Trading AG). The MIC values for the tested compounds were determined in three independent experiments and presented in μM with standard errors and also in μg/mL. Amikacin (P. aeruginosa), linezolid (S. aureus), and ciprofloxacin (all other strains) served as positive controls. The MIC and EC50 values were determined by curve fitting with Sigma Plot. To determine the effect of the culture medium on the activity of silver compounds, the assay was performed using MHB, TSY, or DMEM (Gibco). To observe the effect of individual components of TSY medium, antibacterial tests were performed using MHB with addition of tryptone (17 g/L) or yeast extract (3 g/L, both were purchased from Sigma).

[2] = test system: K. pneumoniae (DSM 11678, ATCC33495); assay: Broth microdilution antibacterial assay; type: cell-based, Klebsiella pneumoniae; details: n = 3, MHB; for MIC K. pneumoniae / EC50: mean ± standard error; for MIC K. pneumoniae / MIC K. pneumoniae (value in brackets): 22 h; for EC50: read-out: EC50 K. pneumoniae
Description: as §1, §2

[3] = test system: A. baumannii (DSM 30007, ATCC 19606); assay: Broth microdilution antibacterial assay; type: cell-based, Acinetobacter baumannii; details: n = 3, MHB; for MIC A. baumannii / EC50: mean ± standard error; for MIC A. baumannii / MIC A. baumannii (value in brackets): 22 h; for EC50: read-out: EC50 A. baumannii
Description: as §1, §2

[4] = test system: E. faecium (DSM 20477, ATCC 19434); assay: Broth microdilution antibacterial assay; type: cell-based, Enterococcus faecium; details: n = 3, TSY; for MIC E. faecium / EC50: mean ± standard error; for MIC E. faecium / MIC E. faecium (value in brackets): 22 h; for EC50: read-out: EC50 E. faecium
Description: as §1, §2

[5] = Conductometry: molar conductivity of silver complexes in DMSO; type: physicochemical; details: 1.0 mM in DMSO, calculated as monocarbene (NHC)AgX
Description: Since both the neutral monocarbene and the ionic biscarbene form of the complexes may exist in various proportions in the solution, conductometry studies were performed to reveal the dominant structure. The molar conductivity of 1.0 mM solutions of each complex in DMSO was determined after different periods up to 24 h using AgNO3 as 1:1 electrolyte reference (see Table 1). According to the literature, the expected range of molar conductivity for 1:1 electrolytes in DMSO is 35–90 S cm^2 mol^–1.[45],[46]
Conductivity measurements were performed using an Apera Instruments EC9500 conductivity meter. Solutions (as indicated, otherwise 1.0 mM) of all compounds were prepared using freshly distilled DMSO with a specific electrical conductivity of ≤3 × 10^–8 S cm^–1. The conductivities were measured at 25 ± 2 °C immediately after complete dissolution and after 24 h.

[6] = test system: P. aeruginosa PA7 (DSM 24068); assay: microbe, parasite or virus in culture; type: cell-based, Pseudomonas aeruginosa; details: n = 3, MHB; for MIC P. aeruginosa / EC50: mean ± standard error; for MIC P. aeruginosa / MIC P. aeruginosa (value in brackets): 22 h; for EC50: read-out: EC50 P. aeruginosa
Description: as §1, §2

[7] = test system: P. aeruginosa (PA 14) biofilm; assay: Inhibition of biofilm formation, crystal violet staining; type: cell-based, Pseudomonas aeruginosa; details: for smallest active concentration for biofilm inhibition: concentration at which the % inhibition was found; for biofilm inhibition: ± SD, n = 4, at the respective smallest active concentration, 24 h
Source text: Silver and its complexes can strongly affect the growth of biofilms.[56]−[58] In view of the promising activity against Gram-negative bacteria as mentioned above, we evaluated the inhibiting effect of the silver complexes on biofilm production by P. aeruginosa by a method based on crystal violet staining (Table 4 and Figure S14). Complexes 3a–c and 4a–c were selected for the test based on the results of solubility, stability, and antibacterial screening. […] The lower activity of 3c might be explained by its lower kinetic solubility in the aqueous environment (see Figure 4).
The antibiofilm activity was determined according to a literature method.[73] A 1 mL aliquot of P. aeruginosa (PA 14) was taken from −20 °C stock, incubated in 25 mL LB medium (Luria–Bertani Broth) in a 250 mL flask, and kept at 37 °C at 100 rpm overnight. The optical density at 600 nm (OD600) of the culture solution was adjusted to match the turbidity of a 0.1 McFarland standard in M63 medium.[74] Selected compounds were mixed with 150 μL of bacterial solution in U-bottom 96 well plates to the final respective concentrations (25–0.2 μg/mL). The plates were further incubated at 37 °C for 24 h while shaking at 150 rpm. Afterward, the plates were rinsed once with 150 μL of PBS buffer, and the biofilms were stained using 150 μL of crystal violet (0.1%) staining at room temperature for 15 min and then rinsed once with PBS buffer. After rinsing, 150 μL of ethanol (95%) was added, and the absorbance was quantified using a plate reader (Synergy 2, BioTek, Santa Clara, USA) at 550 nm. The resulting antibiofilm activity is presented as percentage of inhibition at the respective smallest active concentration in μM with standard deviation (SD) of two repeats with duplicates. Myxovalargin A and DMSO (2.5%) were used as the positive and negative controls, respectively.

[8] = test system: E. coli (DSM1116, ATCC 9637); assay: microbe, parasite or virus in culture; type: cell-based, Escherichia coli; details: n = 3, MHB; for EC50 / MIC E. coli: mean ± standard error; for MIC E. coli / MIC E. coli (value in brackets): 22 h
Description: as §1, §2

Compound	MIC MRSA [1] [µM]	EC50 [1] [µM]	MIC MRSA (value in brackets) [1] [mg/L]	MIC K. pneumoniae [2] [µM]	EC50 [2] [µM]	MIC K. pneumoniae (value in brackets) [2] [mg/L]	MIC A. baumannii [3] [µM]	EC50 [3] [µM]	MIC A. baumannii (value in brackets) [3] [mg/L]	MIC E. faecium [4] [µM]	EC50 [4] [µM]	MIC E. faecium (value in brackets) [4] [mg/L]	Molar conductivity ΛM ([5]; 1 h after dissolution) [S cm^2 mol^–^1]	Molar conductivity ΛM ([5]; 24 h after dissolution) [S cm^2 mol^–^1]	MIC P. aeruginosa [6] [µM]	EC50 [6] [µM]	MIC P. aeruginosa (value in brackets) [6] [mg/L]	EC50 [8] [µM]	MIC E. coli [8] [µM]	MIC E. coli (value in brackets) [8] [mg/L]	further results
COCCn1[c]([Ag][Cl])[n+](Cc2ccccn2)c2ccccc21 [4a]	156 ± 0.0	85.7 ± 0.6	64	9.74 ± 0.0	5.2 ± 0.1	4	16.2 ± 3.2	1.9 ± 0.4	7	156 ± 0.0	123 ± 6.1	64	3.38	3.01	26.0 ± 6.5	9.6 ± 0.3	11	31.1 ± 1.8	39.0 ± 0.0	16	smallest active concentration for biofilm inhibition [7]: 7.6 µM; biofilm inhibition [7]: 71 ± 3%
COCCn1[c](=[Ag][Br])n(Cc2ccccn2)c2ccccc21 [4b, Bromido (1-(2-Methoxyethyl)-3-(pyridin-2-ylmethyl)-benzimidazol-2-ylidene) Silver(I)]	141 ± 0.0	78.3 ± 2	64	17.6 ± 0.0	9.8 ± 1	8	11.7 ± 2.9	2.1 ± 0.1	5	141 ± 0.0	120 ± 0.8	64	5.11	5.08	23.4 ± 5.9	8.6 ± 1.1	11	59.2 ± 4.3	70.3 ± 0.0	32	smallest active concentration for biofilm inhibition [7]: 6.8 µM; biofilm inhibition [7]: 70 ± 5%
CCn1[c](=[Ag][Cl])n(Cc2ccccn2)c2ccccc21 [2a, Chlorido (1-Ethyl-3-(pyridin-2-ylmethyl)-benzimidazol-2-ylidene) Silver(I)]	168 ± 0.0	98.5 ± 0.8	64	17.5 ± 3.5	12 ± 0.9	7	10.5 ± 0.0	2.4 ± 0.1	4	168 ± 0.0	132 ± 6.8	64	3.47	3.03	10.5 ± 0.0	6.4 ± 0.5	4	33.3 ± 4.7	56.0 ± 14.0	21	
Cn1[c]([Ag][Cl])[n+](Cc2ccccn2)c2ccccc21 [1a]	175 ± 0.0	146 ± 2.8	64	18.2 ± 3.6	8.5 ± 1.2	7	14.6 ± 3.6	1.7 ± 0.4	5	175 ± 0.0	145 ± 2.3	64	2.88	3.05	10.9 ± 0.0	5.7 ± 0.8	4	53.3 ± 8.6	116 ± 29	43	
myxovalargin A [reference compound]																					smallest active concentration for biofilm inhibition [7]: 18.6 µM; biofilm inhibition [7]: 68 ± 0%
